Experimental data: patent US8124793B2, “Derivatives of ethylene methanedisulfonate as cancer chemotherapeutic agents” (priority 2007, dated 2012)

What was measured:
Type in all cases: cell-based
CCRF-CEM = experiment: NCI screen, growth of human tumor cells: Leukemia CCRF-CEM; details: CCRF-CEM
Procedure, shortened: (§1)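 At least 60 data points describe each compound tested by NCI. Cancer type, molar concentration in the screen and percent growth make up the recorded data.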

MOLT-4 = experiment: NCI screen, growth of human tumor cells: Leukemia MOLT-4; details: MOLT-4 (Leukemia), 10^−4 molar
Procedure, shortened: as §1

RPMI-8226 = experiment: NCI screen, growth of human tumor cells: Leukemia RPMI-8226; details: RPMI-8226 (Leukemia), 10^−4 molar
Procedure, shortened: as §1

SR = experiment: NCI screen, growth of human tumor cells: Leukemia SR; details: SR
Procedure, shortened: as §1

AS49/ATCC = experiment: NCI screen, growth of human tumor cells: Non-Small Cell Lung AS49/ATCC; details: A549/ATCC, 10^−4 molar
Description: (§2) In the NCI screening process, each compound was tested and described by a minimum of 60 data points. The test data include, but are not limited to the type of cancer, the molar concentration used in the screen, and the percent growth of the cancer. In some cases, NMR and elemental analysis were used for structural assignment.

EKVX = experiment: NCI screen, growth of human tumor cells: Non-Small Cell Lung EKVX; details: EKVX, 10^−4 molar
Procedure, shortened: as §1

HOP-62 = experiment: NCI screen, growth of human tumor cells: Non-Small Cell Lung HOP-62; details: HOP-62, 10^−4 molar
Procedure, shortened: as §1

HOP-92 = experiment: NCI screen, growth of human tumor cells: Non-Small Cell Lung HOP-92; details: HOP-92 (Non-Small Cell Lung), 10^−4 molar
Procedure, shortened: as §1

NCI-H522 = experiment: NCI screen, growth of human tumor cells: Non-Small Cell Lung NCI-H522
Procedure, shortened: as §1

NCI-H460 = experiment: NCI screen, growth of human tumor cells: Non-Small Cell Lung NCI-H460; details: NCI-H460 (Non-Small Cell Lung), 10^−4 molar
Procedure, shortened: as §1

NCI-H322M = experiment: NCI screen, growth of human tumor cells: Non-Small Cell Lung NCI-H322M; details: 10^−4 molar
Description: as §2

NCI-H23 = experiment: NCI screen, growth of human tumor cells: Non-Small Cell Lung NCI-H23; details: NCI-H23, 10^−4 molar
Procedure, shortened: as §1

HCC-2998 = experiment: NCI screen, growth of human tumor cells: HCC-2998 (listed under Non-Small Cell Lung); details: HCC-2998, 10^−4 molar
Description: as §2

COLO205 = experiment: NCI screen, growth of human tumor cells: Colon Cancer COLO205
Procedure, shortened: as §1

HCT-116 = experiment: NCI screen, growth of human tumor cells: Colon Cancer HCT-116; details: HCT-116, 10^−4 molar
Procedure, shortened: as §1

HCT-15 = experiment: NCI screen, growth of human tumor cells: Colon Cancer HCT-15; details: HCT-15 (Colon Cancer), 10^−4 molar
Procedure, shortened: as §1

HT29 = experiment: NCI screen, growth of human tumor cells: Colon Cancer HT29; details: HT-29, 10^−4 molar
Description: as §2

KM12 = experiment: NCI screen, growth of human tumor cells: Colon Cancer KM12; details: KM12, 10^−4 molar
Procedure, shortened: as §1

SF-268 = experiment: NCI screen, growth of human tumor cells: CNS Cancer SF-268
Procedure, shortened: as §1

SF-295 = experiment: NCI screen, growth of human tumor cells: CNS Cancer SF-295
Procedure, shortened: as §1

SNB-19 = experiment: NCI screen, growth of human tumor cells: CNS Cancer SNB-19; details: SNB-19, 10^−4 molar
Description: as §2

SNB-75 = experiment: NCI screen, growth of human tumor cells: CNS Cancer SNB-75
Procedure, shortened: as §1

U-251 = experiment: NCI screen, growth of human tumor cells: CNS Cancer U-251; details: U251, 10^−4 molar
Procedure, shortened: as §1

M14 = experiment: NCI screen, growth of human tumor cells: Melanoma M14; details: M14, 10^−4 molar
Procedure, shortened: as §1

MALME-3M = experiment: NCI screen, growth of human tumor cells: Melanoma MALME-3M; details: MALME-3M
Procedure, shortened: as §1

SK-MEL-2 = experiment: NCI screen, growth of human tumor cells: Melanoma SK-MEL-2; details: SK-MEL-2, 10^−4 molar
Procedure, shortened: as §1

SK-MEL-28 = experiment: NCI screen, growth of human tumor cells: Melanoma SK-MEL-28; details: SK-MEL-28 (Melanoma), 10^−4 molar
Procedure, shortened: as §1

SK-MEL-5 = experiment: NCI screen, growth of human tumor cells: Melanoma SK-MEL-5; details: SK-MEL-5, 10^−4 molar
Procedure, shortened: as §1

UACC-257 = experiment: NCI screen, growth of human tumor cells: Melanoma UACC-257; details: UACC-257 (Melanoma), 10^−4 molar
Procedure, shortened: as §1

UACC-62 = experiment: NCI screen, growth of human tumor cells: Melanoma UACC-62; details: UACC-62, 10^−4 molar
Procedure, shortened: as §1

IGROVI = experiment: NCI screen, growth of human tumor cells: Ovarian Cancer IGROVI; details: IGROVI
Procedure, shortened: as §1

OVCAR-3 = experiment: NCI screen, growth of human tumor cells: Ovarian Cancer OVCAR-3; details: OVCAR-3, 10^−4 molar
Procedure, shortened: as §1

OVCAR-4 = experiment: NCI screen, growth of human tumor cells: Ovarian Cancer OVCAR-4; details: OVCAR-4 (Ovarian Cancer), 10^−4 molar
Procedure, shortened: as §1

OVCAR-5 = experiment: NCI screen, growth of human tumor cells: Ovarian Cancer OVCAR-5; details: OVCAR-5, 10^−4 molar
Procedure, shortened: as §1

TK-10 = experiment: NCI screen, growth of human tumor cells: Renal Cancer TK-10; details: TK-10 (Renal Cancer), 10^−4 molar
Description: as §2

SN12C = experiment: NCI screen, growth of human tumor cells: Renal Cancer SN12C; details: SN12C (Renal Cancer), 10^−4 molar
Procedure, shortened: as §1

CAKI-1 = experiment: NCI screen, growth of human tumor cells: Renal Cancer CAKI-1; details: CAKI-1, 10^−4 molar
Procedure, shortened: as §1

UO-31 = experiment: NCI screen, growth of human tumor cells: Renal Cancer UO-31; details: UO-31 (Renal Cancer), 10^−4 molar
Procedure, shortened: as §1

PC-3 = experiment: NCI screen, growth of human tumor cells: Prostate Cancer PC-3; details: PC-3, 10^−4 molar
Description: as §2

DU-145 = experiment: NCI screen, growth of human tumor cells: Prostate Cancer DU-145; details: DV-145, 10^−4 molar
Procedure, shortened: as §1

MCF7/ADR-RES = experiment: NCI screen, growth of human tumor cells: Breast Cancer MCF7/ADR-RES; details: MCF7/ADR-RES, 10^−4 molar
Procedure, shortened: as §1

BT-549 = experiment: NCI screen, growth of human tumor cells: Breast Cancer BT-549; details: BT-549 (Breast Cancer), 10^−4 molar
Procedure, shortened: as §1

HS 578T = experiment: NCI screen, growth of human tumor cells: Breast Cancer HS 578T; details: H5-578T
Procedure, shortened: as §1

MDA-MB-231/ATCC = experiment: NCI screen, growth of human tumor cells: Breast Cancer MDA-MB-231/ATCC; details: MDA-MB-231/ATCC (Breast Cancer), 10^−4 molar
Description: as §2

human cancer cells = experiment: NCI screen summary over the cancers tested (negative growth of human cancer cells); details: 10^−4 M conc.
Description: as §2
The derivatives in the tables are grouped using the same category as in the tables 1-6.

propane-1-[hydroxyhydrogensulfate]-3-(2-methylnaphthyl)-3,3-(ethylenedisulfonate) [NSC 693879]
% Growth (CCRF-CEM; 10^−4 molar): −33%
% Growth (CCRF-CEM; 10^−5 molar): 52%
percent of growth of human tumor cells (MOLT-4): −16%
percent of growth of human tumor cells (RPMI-8226): −28%
% Growth (SR; 10^−4 molar): −19%
% Growth (SR; 10^−5 molar): 13%
% Growth (AS49/ATCC): −62%
% Growth (EKVX): −90%
% Growth (HOP-62): −65%
percent of growth of human tumor cells (HOP-92): −35%
% Growth (NCI-H522; NCI-H522, 10^−4 molar): −100%
% Growth (NCI-H522; NCI-H522, 10^−5 molar): 35%
% Growth (NCI-H522; NCI-H522, 10^−6 molar): 63%
percent of growth of human tumor cells (NCI-H460): −58%
percent of growth of human tumor cells (NCI-H322M; NCI-H322M (Non-Small Cell Lung)): −71%
% Growth (NCI-H322M; NCI-H322M): −71%
% Growth (NCI-H23): −65%
% Growth (HCC-2998): −78%
% Growth (COLO205; COLO205, 10^−4 molar): −73%
% Growth (COLO205; COLO205, 10^−5 molar): 57%
% Growth (HCT-116): −79%
percent of growth of human tumor cells (HCT-15): −39%
% Growth (HT29): −86%
% Growth (KM12): −92%
% Growth (SF-268; SF-268, 10^−4 molar): −56%
% Growth (SF-268; SF-268, 10^−5 molar): 59%
% Growth (SF-295; SF-295, 10^−4 molar): −82%
% Growth (SF-295; SF-295, 10^−5 molar): 58%
% Growth (SNB-19): −72%
% Growth (SNB-75; SNB-75, 10^−4 molar): −62%
% Growth (SNB-75; SNB-75, 10^−5 molar): 55%
% Growth (U-251): −100%
% Growth (M14): −100%
% Growth (MALME-3M; 10^−4 molar): −100%
% Growth (MALME-3M; 10^−5 molar): 44%
% Growth (MALME-3M; 10^−6 molar): 62%
% Growth (SK-MEL-2): −99%
percent of growth of human tumor cells (SK-MEL-28): −5%
% Growth (SK-MEL-5): −100%
percent of growth of human tumor cells (UACC-257): −32%
% Growth (UACC-62): −66%
% Growth (IGROVI; 10^−4 molar): −89%
% Growth (IGROVI; 10^−5 molar): 50%
% Growth (IGROVI; 10^−6 molar): 60%
% Growth (IGROVI; 10^−7 molar): 52%
% Growth (OVCAR-3): −100%
percent of growth of human tumor cells (OVCAR-4): −40%
% Growth (OVCAR-5): −100%
percent of growth of human tumor cells (TK-10): −3%
percent of growth of human tumor cells (SN12C): −57%
% Growth (CAKI-1): −87%
percent of growth of human tumor cells (UO-31): −48%
% Growth (PC-3): −100%
% Growth (DU-145): −100%
% Growth (MCF7/ADR-RES): −54%
percent of growth of human tumor cells (BT-549): −34%
% Growth (HS 578T; 10^−4 molar): −49%
% Growth (HS 578T; 10^−5 molar): 55%
percent of growth of human tumor cells (MDA-MB-231/ATCC): −54%
percentage of cancers that had −100% growth (human cancer cells): 20%
Percentage of cancers showing negative growth cancers tested (human cancer cells; cancers with negative growth / cancers tested): 100%
